Each structure is given as a SMILES string. pIC50: −log10 of the molar value. Structures can show the parent of a compound that is named as a salt.

Chain of hNav1.7 (Q15858 other isoform, or with tags, fused parts or gaps): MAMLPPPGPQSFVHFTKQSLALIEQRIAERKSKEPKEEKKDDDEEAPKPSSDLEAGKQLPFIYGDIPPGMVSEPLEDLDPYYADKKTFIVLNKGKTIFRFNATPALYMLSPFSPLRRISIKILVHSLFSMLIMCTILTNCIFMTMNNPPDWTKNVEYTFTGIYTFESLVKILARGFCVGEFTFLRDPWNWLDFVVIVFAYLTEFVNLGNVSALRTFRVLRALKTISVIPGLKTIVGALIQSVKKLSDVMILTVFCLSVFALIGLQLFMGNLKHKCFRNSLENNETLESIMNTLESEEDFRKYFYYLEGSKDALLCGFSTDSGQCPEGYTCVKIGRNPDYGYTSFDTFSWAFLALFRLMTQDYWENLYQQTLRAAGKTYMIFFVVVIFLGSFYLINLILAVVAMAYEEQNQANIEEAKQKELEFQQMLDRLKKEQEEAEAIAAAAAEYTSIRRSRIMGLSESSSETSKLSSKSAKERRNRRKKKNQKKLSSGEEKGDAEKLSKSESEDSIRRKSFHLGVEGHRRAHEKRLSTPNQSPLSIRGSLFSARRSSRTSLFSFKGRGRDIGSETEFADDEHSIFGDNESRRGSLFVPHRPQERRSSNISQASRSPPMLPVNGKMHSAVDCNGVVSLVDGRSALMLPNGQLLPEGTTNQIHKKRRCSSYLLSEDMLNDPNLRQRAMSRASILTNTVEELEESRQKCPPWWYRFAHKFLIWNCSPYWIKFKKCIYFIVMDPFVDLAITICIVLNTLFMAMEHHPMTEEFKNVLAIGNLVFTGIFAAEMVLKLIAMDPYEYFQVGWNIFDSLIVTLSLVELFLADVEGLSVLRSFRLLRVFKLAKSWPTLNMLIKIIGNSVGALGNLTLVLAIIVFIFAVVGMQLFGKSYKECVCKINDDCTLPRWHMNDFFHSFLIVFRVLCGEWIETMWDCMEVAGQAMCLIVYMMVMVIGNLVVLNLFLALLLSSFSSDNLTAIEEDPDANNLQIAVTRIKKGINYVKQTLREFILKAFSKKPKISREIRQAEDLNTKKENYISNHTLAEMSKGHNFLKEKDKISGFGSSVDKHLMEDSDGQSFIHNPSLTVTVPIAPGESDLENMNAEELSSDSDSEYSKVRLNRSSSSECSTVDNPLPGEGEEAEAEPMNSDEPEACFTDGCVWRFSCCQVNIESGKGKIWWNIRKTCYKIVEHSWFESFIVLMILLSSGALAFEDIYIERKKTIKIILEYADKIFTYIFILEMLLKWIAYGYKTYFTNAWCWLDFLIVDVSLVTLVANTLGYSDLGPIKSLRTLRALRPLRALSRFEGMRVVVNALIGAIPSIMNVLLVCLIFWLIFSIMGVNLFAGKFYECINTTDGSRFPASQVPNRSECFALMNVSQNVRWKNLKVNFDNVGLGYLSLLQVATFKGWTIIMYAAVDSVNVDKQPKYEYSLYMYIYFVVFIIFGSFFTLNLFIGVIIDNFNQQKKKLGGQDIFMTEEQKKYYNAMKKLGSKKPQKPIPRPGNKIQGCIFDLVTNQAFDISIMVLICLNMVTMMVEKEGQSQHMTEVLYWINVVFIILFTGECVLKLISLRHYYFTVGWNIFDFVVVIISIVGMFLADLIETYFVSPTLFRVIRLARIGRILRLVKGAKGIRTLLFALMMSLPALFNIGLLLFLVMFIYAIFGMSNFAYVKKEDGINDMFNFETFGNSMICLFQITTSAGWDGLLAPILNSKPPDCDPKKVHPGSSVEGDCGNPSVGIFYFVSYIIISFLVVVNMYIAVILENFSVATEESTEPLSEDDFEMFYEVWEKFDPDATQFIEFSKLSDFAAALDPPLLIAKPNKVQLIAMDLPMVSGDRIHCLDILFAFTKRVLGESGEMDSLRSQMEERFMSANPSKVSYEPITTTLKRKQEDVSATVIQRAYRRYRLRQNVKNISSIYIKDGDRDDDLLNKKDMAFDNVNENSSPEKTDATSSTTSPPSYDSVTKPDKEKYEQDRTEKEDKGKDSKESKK
Chain of hNav1.7 (Q07699 19-218 partner): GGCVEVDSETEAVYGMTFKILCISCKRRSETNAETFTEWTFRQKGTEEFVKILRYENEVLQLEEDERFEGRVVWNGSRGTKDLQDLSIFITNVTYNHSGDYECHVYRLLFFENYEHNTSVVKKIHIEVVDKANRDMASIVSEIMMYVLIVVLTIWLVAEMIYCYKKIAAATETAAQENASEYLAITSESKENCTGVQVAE

The first test addresses hNav1.7 (Homo sapiens (Human), UniProt Q15858). The test can be described thus: Tritiated sulfonamide competitive binding to membranes from cells expressing hNav1.7 and the β1 subunit.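 Further: Filter-bound radioactivity counted by liquid scintillation, nonspecific binding defined with excess unlabelled ligand, IC50 fitted to percent inhibition of specific binding.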
Details: not given
As for `C[C@H](c1cc(Cl)cc(Cl)c1)N1CCN(Cc2cc(F)c(C(=O)NS(=O)(=O)C3CC3)cc2C2CC2)C[C@@H]1C` [Example 566, 5-cyclopropyl-N-(cyclopropylsulfonyl)-4-(((S)-4-((R)-1-(3,5-dichlorophenyl)ethyl)-3-methylpiperazin-1-yl)methyl)-2-fluorobenzamide], the pIC50 was 8.57.

For `O=C(NS(=O)(=O)C1CC1)c1cc(C2CC2)c(CN2CCC(Oc3ccc(Cl)cc3Cl)CC2)cc1F` [Example 547, 5-cyclopropyl-N-(cyclopropylsulfonyl)-4-((4-(2,4-dichlorophenoxy)piperidin-1-yl)methyl)-2-fluorobenzamide, trifluoroacetic acid salt], the pIC50 was 8.09.

Consider `CS(=O)(=O)NC(=O)c1cc(C2CC2)c(O[C@@H]2CCCN(Cc3ccc(F)cc3C(F)(F)F)C2)cc1F` [Example 34, (R)-5-cyclopropyl-2-fluoro-4-((1-(4-fluoro-2-(trifluoromethyl)benzyl)piperidin-3-yl)oxy)-N-(methylsulfonyl)benzamide], for which the pIC50 is 8.72.

Molecule `O=C(NS(=O)(=O)C1CC1)c1cc(C2CC2)c(CN2CCC(Oc3cc(C(F)(F)F)c(Cl)cn3)CC2)cc1F` [Example 522, 4-((4-((5-chloro-4-(trifluoromethyl)pyridin-2-yl)oxy)piperidin-1-yl)methyl)-5-cyclopropyl-N-(cyclopropylsulfonyl)-2-fluorobenzamide, trifluoroacetic acid salt] showed a pIC50 of 8.28.

The molecule `CS(=O)(=O)NC(=O)c1cc(C2CC2)c(CN2CCC(Oc3cc(Cl)cc(OC(F)(F)F)c3)CC2)cc1F` [Example 548, 4-((4-(3-chloro-5-(trifluoromethoxy)phenoxy)piperidin-1-yl)methyl)-5-cyclopropyl-2-fluoro-N-(methylsulfonyl)benzamide, trifluoroacetic acid salt] showed a pIC50 of 8.43.

Regarding `CS(=O)(=O)NC(=O)c1cc(C2CC2)c(CN2CCC(Oc3ccc(Cl)c(C(F)(F)F)c3)CC2)cc1F` [Example 519, 4-((4-(4-chloro-3-(trifluoromethyl)phenoxy)piperidin-1-yl)methyl)-5-cyclopropyl-2-fluoro-N-(methylsulfonyl)benzamide, trifluoroacetic acid salt], the pIC50 was 8.09.

Molecule `C[C@H](c1cc(Cl)cc(Cl)c1)N1CCN(Cc2cc(F)c(C(=O)NS(C)(=O)=O)cc2C2CC2)C[C@@H]1C` [Example 565, 5-cyclopropyl-4-(((S)-4-((R)-1-(3,5-dichlorophenyl)ethyl)-3-methylpiperazin-1-yl)methyl)-2-fluoro-N-(methylsulfonyl)benzamide] showed a pIC50 of 8.39.

The same test, now with this note: read-out: Ligand Binding Assay; 100 pM [3H]compound, membranes with hNav1.7 and β1 subunit, 18 h, room temperature.
Regarding `CS(=O)(=O)NC(=O)c1cc(C2CC2)c(OCC2CCN(S(=O)(=O)c3ccc(C(F)(F)F)cc3)CC2)cc1F` [Example 372, 5-cyclopropyl-2-fluoro-N-(methylsulfonyl)-4-((1-((4-(trifluoromethyl)phenyl)sulfonyl)piperidin-4-yl)methoxy)benzamide], the pIC50 is 7.31.

Take `O=C(NS(=O)(=O)C1CC1)c1cc(C2CC2)c(OCC2CCN(S(=O)(=O)C3CCOCC3)CC2)cc1F` [Example 377, 5-cyclopropyl-N-(cyclopropylsulfonyl)-2-fluoro-4-((1-((tetrahydro-2H-pyran-4-yl)sulfonyl)piperidin-4-yl)methoxy)benzamide]: the pIC50 is 5.90.

For `CS(=O)(=O)NC(=O)c1cc(C2CC2)c(O[C@@H]2CCCN(Cc3ccc4c(c3)OCCO4)C2)cc1F` [Example 429, (R)-5-cyclopropyl-4-((1-((2,3-dihydrobenzo[b][1,4]dioxin-6-yl)methyl)piperidin-3-yl)oxy)-2-fluoro-N-(methylsulfonyl)benzamide, trifluoroacetic acid salt], the pIC50 was 7.28.

With `CS(=O)(=O)NC(=O)c1cc(C2CC2)c(OCC2CCN(CC(F)(F)C(F)F)CC2)cc1F` [Example 192, 5-Cyclopropyl-2-fluoro-N-(methylsulfonyl)-4-((1-(2,2,3,3-tetrafluoropropyl)piperidin-4-yl)methoxy)benzamide], the pIC50 was 7.47.

For `C[C@H](c1ccc(F)cc1)N1CCC[C@@H](Oc2cc(F)c(C(=O)NS(=O)(=O)C3CC3)cc2C2CC2)C1` [Example 317, 5-cyclopropyl-N-(cyclopropylsulfonyl)-2-fluoro-4-(((R)-1-((R)-1-(4-fluorophenyl)ethyl)piperidin-3-yl)oxy)benzamide], the pIC50 is 8.22.

With `CC1(COc2cc(F)c(C(=O)NS(C)(=O)=O)cc2C2CC2)CCN(Cc2ccc(F)cc2C(F)(F)F)CC1` [Example 130, 5-cyclopropyl-2-fluoro-4-((1-(4-fluoro-2-(trifluoromethyl)benzyl)-4-methylpiperidin-4-yl)methoxy)-N-(methylsulfonyl)benzamide], the pIC50 was 8.46.

With `CS(=O)(=O)NC(=O)c1cc(C2CC2)c(OCC2CCN(Cc3ccc(C(F)(F)F)cc3)CC2)cc1F` [Example 126], the pIC50 was 6.55.

For the molecule `CS(=O)(=O)NC(=O)c1cc(C2CC2)c(OCC2CN([C@@H](c3ccccc3)c3ccccc3F)C2)cc1F` [Example 124, (S)-5-Cyclopropyl-2-fluoro-4-((1-((2-fluorophenyl)(phenyl)methyl)azetidin-3-yl)methoxy)-N-(methylsulfonyl)benzamide], the pIC50 was 7.15.

In the case of `C[C@H](c1cc(Cl)cc(Cl)c1)N1CC(C)(COc2cc(F)c(C(=O)NS(C)(=O)=O)cc2C2CC2)C1` (single isomer, unassigned) [Example 185], the pIC50 was 8.15.

With `O=C(NS(=O)(=O)C1CC1)c1cc(C2CC2)c(OCC2CN(c3cc(C(F)(F)F)c(Cl)cn3)C2)cc1F` [Example 543, 4-((1-(5-chloro-4-(trifluoromethyl)pyridin-2-yl)azetidin-3-yl)methoxy)-5-cyclopropyl-N-(cyclopropylsulfonyl)-2-fluorobenzamide], the pIC50 is 7.93.

For the molecule `CS(=O)(=O)NC(=O)c1cc(C2CC2)c(OCC2CCN(Cc3ccc(Cl)cc3)CC2)cc1F` [Example 104, 4-((1-(4-Chlorobenzyl)piperidin-4-yl)methoxy)-5-cyclopropyl-2-fluoro-N-(methylsulfonyl)benzamide], the pIC50 was 7.35.

For `C[C@@H](c1cc(Cl)cc(Cl)c1)N1CCC(C)(COc2cc(F)c(C(=O)NS(C)(=O)=O)cc2C2CC2)CC1` (single isomer, unassigned) [Example 211], the pIC50 was 8.77.

In the case of `O=C(NS(=O)(=O)N1CCC1)c1cc(C2CC2)c(CN2CCC(OCc3ccc(F)cc3Cl)CC2)cc1F` [Example 479, N-(azetidin-1-ylsulfonyl)-4-((4-((2-chloro-4-fluorobenzyl)oxy)piperidin-1-yl)methyl)-5-cyclopropyl-2-fluorobenzamide, trifluoroacetic acid salt], the pIC50 is 7.26.

Turning to `CS(=O)(=O)NC(=O)c1cc(C2CC2)c(OCC2CCN(Cc3cccc(F)c3)CC2)cc1F` [Example 88, 4-((1-(3-Fluorobenzyl)piperidin-4-yl)methoxy)-5-cyclopropyl-2-fluoro-N-(methylsulfonyl)benzamide], the pIC50 was 7.03.

As for `O=C(NS(=O)(=O)C1CC1)c1cc(C2CC2)c(OCC2CCN(S(=O)(=O)c3cc(Cl)cc(Cl)c3)CC2)cc1F` [Example 275, 5-Cyclopropyl-N-(cyclopropylsulfonyl)-4-((1-((3,5-dichlorophenyl)sulfonyl)piperidin-4-yl)methoxy)-2-fluorobenzamide], the pIC50 was 8.16.

Regarding `O=C(NS(=O)(=O)N1CCC1)c1cc(C2CC2)c(CN2CCO[C@H](Cc3ccc(Cl)c(Cl)c3)C2)cc1F` [Example 459, (R)—N-(azetidin-1-ylsulfonyl)-5-cyclopropyl-4-((2-(3,4-dichlorobenzyl)morpholino)methyl)-2-fluorobenzamide], the pIC50 was 7.90.

On to `CC(C)N(C(=O)CN1CCC(COc2cc(F)c(C(=O)NS(C)(=O)=O)cc2C2CC2)CC1)C(C)C` [Example 180, 5-Cyclopropyl-4-((1-(2-(diisopropylamino)-2-oxoethyl)piperidin-4-yl)methoxy)-2-fluoro-N-(methylsulfonyl)benzamide], for which the pIC50 was 5.00.

On to `C[C@H](c1cc(Cl)cc(C(F)(F)F)c1)N1CCC(COc2cc(F)c(C(=O)NS(C)(=O)=O)cc2C2CC2)CC1` (single isomer, unassigned) [Example 276], for which the pIC50 was 8.24.

Consider `CCC(c1cc(Cl)cc(Cl)c1)N1CCC(COc2cc(F)c(C(=O)NS(C)(=O)=O)cc2C2CC2)CC1` (stereo not shown) [Example 155, 5-Cyclopropyl-4-((1-(1-(3,5-dichlorophenyl)propyl)piperidin-4-yl)methoxy)-2-fluoro-N-(methylsulfonyl)benzamide], for which the pIC50 is 8.69.

For `CS(=O)(=O)NC(=O)c1cc(C2CC2)c(CN2CCO[C@H](Cc3ccc(F)cc3Cl)C2)cc1F` [Example 466, (R)-4-((2-(2-chloro-4-fluorobenzyl)morpholino)methyl)-5-cyclopropyl-2-fluoro-N-(methylsulfonyl)benzamide, trifluoroacetic acid salt], the pIC50 is 8.14.

As for `CC1(C)CO[C@H](Cc2cc(Cl)cc(Cl)c2)CN1Cc1cc(F)c(C(=O)NS(C)(=O)=O)cc1C1CC1` [Example 469, (R)-5-cyclopropyl-4-((2-(3,5-dichlorobenzyl)-5,5-dimethylmorpholino)methyl)-2-fluoro-N-(methylsulfonyl)benzamide, trifluoroacetic acid salt], the pIC50 was 7.00.

As to `C[C@@H](c1ccccc1)N1CC(COc2cc(F)c(C(=O)NS(C)(=O)=O)cc2C2CC2)C1` [Example 84, (S)-5-Cyclopropyl-2-fluoro-N-(methylsulfonyl)-4-((1-(1-phenylethyl)azetidin-3-yl)methoxy)benzamide], the pIC50 was 5.91.

Take `CCS(=O)(=O)NC(=O)c1cc(C2CC2)c(OCC2CCN([C@@H](COC)c3ccc(Cl)cc3Cl)CC2)cc1F` [Example 287, (R)-5-cyclopropyl-4-((1-(1-(2,4-dichlorophenyl)-2-methoxyethyl)piperidin-4-yl)methoxy)-N-(ethylsulfonyl)-2-fluorobenzamide]: the pIC50 is 8.46.

As to `C[C@H](c1ccccc1)N1CC(COc2cc(F)c(C(=O)NS(C)(=O)=O)cc2C2CC2)C1` [Example 85, (R)-5-Cyclopropyl-2-fluoro-N-(methylsulfonyl)-4-((1-(1-phenylethyl)azetidin-3-yl)methoxy)benzamide], the pIC50 was 5.73.

(Values after patent US9546164B2 (GENENTECH, INC., priority 2013, dated 2017).)
